The text below walks through data of patent EP0340709A1, “(3-Chloro-methyl phenyl)ethyl amines, processes for their production and their use” (BASF Aktiengesellschaft, priority 1988, dated 1989).

In the assay the test system is breitblättrigew unerwünschte Pflanzen. Kind of assay: Greenhouse herbicide test, pre- and post-emergence treatment. The conditions noted are these: 2,0 kg/ha a.S., Nachauflaufverfahren bzw. Vorauflaufverfahren, 2 bis 4 Wochen. The class given is in vivo. The source says:
Die herbizide Wirkfung der (3-Chlor-2-methylphenylethylamine der Formel I ließ sich durch Gewächshausversuche zeigen: Zur Aufzucht der Testpflanzen dienten Plastikblumentöpfe mit 300 cm³ Inhalt und lehmigem Sand mit etwa 3 % Humus als Substrat. Die Samen der Testpflanzen wurden nach Arten getrennt flach eingesät.
Bei Vorauflaufbehandlung wurden die aufbereiteten Wirkstoffe unmittelbar danach auf die Erdoberfläche aufgebracht. Sie wurden hierbei in Wasser als Verteilungsmittel suspendiert oder emulgiert und mittels fein verteilender Düsen gespritzt. Nach dem Aufbringen der Mittel wurden die Gefäße leicht beregnet, um Keimung und Wachstum in Gang zu bringen. Danach wurden die Gefäße mit durchsichtigen Plastikhauben abgedeckt, bis die Pflanzen angewaschsen waren. Diese Abdeckung fördert ein gleichmäßiges Keimen der Testpflanzen, sofern dies nicht durch die Wirkstoffe beeinträchtigt wird. Die Aufwandmengen betrugen 2,0 kg/ha.
Zum Zwecke der Nachauflaufbehandlung wurden die Testpflanzen je nach Wuchsform erst bis zu einer Wuchshöhe von 3 bis 15 cm angezüchtet und erst dann behandelt. Die Testpflanzen wurden dafür entweder direkt gesät und in den gleichen Gefäßen aufgezogen oder sie wurden als Keimpflanzen getrennt gezüchtet und einige Tage vor der Behandlung in die Versuchsgefäße verpflanzt. Die Aufwandmengen für die Nachauflaufbehandlung betrugen 2,0 kg Wirkstoff/ha. […]

With `Cc1c(Cl)cccc1CCNC(=O)c1ccccc1` [Beispiel 3, N-Benzoyl-3-chlor-2-methylphenethylamin], the “herbizide Wirkung (Bekämpfung breitblättriger unerwünschter Pflanzen)” value is “sehr gut”.
